The target of test [1] is T1, USP7 (Homo sapiens, UniProt Q93009). The test can be described thus: biochemical. Details: Ub-AMC hydrolysis by recombinant USP7 (20 nM), 30 min pre-incubation, fluorescence read-out. The following applies: read-out: % Inhibition at 50 μM.
The target of test [2] is T1, USP7. The test can be described thus: gel-based GST-UBA52 cleavage assay and Ub-AMC assay with USP7; supported by CETSA, DARTS and HA-Ub-VS competition in HO8910 lysate. It is filed as biochemical.
The target of the next test is USP2 (Homo sapiens, UniProt O75604). Put plainly: in vitro deubiquitinase activity assay (Supplementary Figure S1). It is filed as biochemical.
Sequence of USP2 (O75604 whole entry): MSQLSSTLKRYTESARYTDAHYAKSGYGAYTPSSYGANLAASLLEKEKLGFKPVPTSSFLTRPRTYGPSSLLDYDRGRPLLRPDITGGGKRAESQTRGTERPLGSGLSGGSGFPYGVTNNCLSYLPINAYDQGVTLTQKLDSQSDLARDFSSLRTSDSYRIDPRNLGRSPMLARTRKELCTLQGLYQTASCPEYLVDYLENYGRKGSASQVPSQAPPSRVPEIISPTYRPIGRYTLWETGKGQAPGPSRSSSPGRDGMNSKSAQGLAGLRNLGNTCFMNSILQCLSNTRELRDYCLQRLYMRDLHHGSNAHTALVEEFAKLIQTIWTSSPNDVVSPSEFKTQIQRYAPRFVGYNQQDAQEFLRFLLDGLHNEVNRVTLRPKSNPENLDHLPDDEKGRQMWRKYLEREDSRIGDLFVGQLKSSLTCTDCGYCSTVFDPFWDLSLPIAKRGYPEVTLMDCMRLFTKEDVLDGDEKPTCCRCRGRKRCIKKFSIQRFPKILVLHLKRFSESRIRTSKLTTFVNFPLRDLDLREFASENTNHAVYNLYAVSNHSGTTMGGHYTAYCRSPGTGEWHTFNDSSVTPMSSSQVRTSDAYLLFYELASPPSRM

SMILES strings stand for the structures. Structures can show the parent of a compound that is named as a salt.

T1 sequence (Q93009 whole entry): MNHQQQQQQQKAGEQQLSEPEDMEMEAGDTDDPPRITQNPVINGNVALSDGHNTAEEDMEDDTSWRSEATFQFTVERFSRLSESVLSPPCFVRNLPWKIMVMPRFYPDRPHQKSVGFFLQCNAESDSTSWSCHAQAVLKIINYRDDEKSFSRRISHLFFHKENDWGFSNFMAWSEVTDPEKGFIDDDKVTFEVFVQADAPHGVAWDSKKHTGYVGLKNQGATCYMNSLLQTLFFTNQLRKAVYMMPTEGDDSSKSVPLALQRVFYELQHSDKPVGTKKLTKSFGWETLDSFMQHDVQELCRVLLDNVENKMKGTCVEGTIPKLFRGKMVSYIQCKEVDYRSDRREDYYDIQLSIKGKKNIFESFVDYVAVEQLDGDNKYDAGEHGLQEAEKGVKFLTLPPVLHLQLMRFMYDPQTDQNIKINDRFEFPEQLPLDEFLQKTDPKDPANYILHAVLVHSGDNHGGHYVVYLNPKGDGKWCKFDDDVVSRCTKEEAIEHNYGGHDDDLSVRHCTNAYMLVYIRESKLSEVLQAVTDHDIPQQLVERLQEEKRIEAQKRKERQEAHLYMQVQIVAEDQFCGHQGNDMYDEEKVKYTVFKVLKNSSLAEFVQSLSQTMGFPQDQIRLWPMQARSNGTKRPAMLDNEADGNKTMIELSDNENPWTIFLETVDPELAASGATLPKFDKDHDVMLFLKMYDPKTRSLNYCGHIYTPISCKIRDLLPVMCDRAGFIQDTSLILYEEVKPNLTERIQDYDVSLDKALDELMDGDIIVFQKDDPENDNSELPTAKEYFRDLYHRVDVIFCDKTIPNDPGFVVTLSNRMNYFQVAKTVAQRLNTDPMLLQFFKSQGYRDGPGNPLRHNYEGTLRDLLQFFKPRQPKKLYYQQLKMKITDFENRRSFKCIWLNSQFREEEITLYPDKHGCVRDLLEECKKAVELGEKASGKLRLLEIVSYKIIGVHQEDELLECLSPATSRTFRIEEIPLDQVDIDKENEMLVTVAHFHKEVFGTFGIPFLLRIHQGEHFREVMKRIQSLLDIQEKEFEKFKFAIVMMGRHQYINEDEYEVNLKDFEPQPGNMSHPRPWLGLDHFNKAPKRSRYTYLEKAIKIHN

With `COC(=O)[C@]12CCC(C)(C)C[C@H]1[C@H]1C(=O)C=C3[C@@]4(C)C=C(C#N)C(=O)C(C)(C)[C@@H]4CC[C@@]3(C)[C@]1(C)CC2` [CDDO-Me], at USP7 [1], the inhibition at 50 µM came to 91.5%. Moreover, the IC50 at USP7 [2] turned out to be 14.1 µM; at USP2, 22.3 µM. `CC[C@]1(O)C[C@H]2CN(CCc3c([nH]c4ccccc34)[C@@](C(=O)OC)(c3cc4c(cc3OC)N(C=O)[C@H]3[C@@](O)(C(=O)OC)[C@H](OC(C)=O)[C@]5(CC)C=CCN6CC[C@]43[C@@H]65)C2)C1` [Vincristine sulfate]: the inhibition at 50 µM at USP7 [1] is under 5%. On to `CC[C@]1(O)C[C@@H]2CN(CCc3c([nH]c4ccccc34)[C@@](C(=O)OC)(c3cc4c(cc3OC)N(C)[C@H]3[C@@](O)(C(N)=O)[C@H](O)[C@]5(CC)C=CCN6CC[C@]43[C@@H]65)C2)C1` [Vindesine], for which the inhibition at 50 µM at USP7 [1] is under 5%.

As for `CCC1=C[C@@H]2CN(C1)Cc1c([nH]c3ccccc13)[C@@](C(=O)OC)(c1cc3c(cc1OC)N(C)[C@H]1[C@@](O)(C(=O)OC)[C@H](OC(C)=O)[C@]4(CC)C=CCN5CC[C@]31[C@@H]54)C2` [Vinorelbine], at USP7 [1], the inhibition at 50 µM came out at 45.3%.

Consider `CCOC(=O)C1=C[C@]2(CC)CCCN3CCc4c(n1c1ccccc41)[C@@H]32` [Vinpocetine], for which, at USP7 [1], the inhibition at 50 µM is 38.5%. On the same count and under the same terms, under `O=C(CCCCCCC(=O)Nc1ccccc1)NO` [Vorinostat] stands under 5%; under `O=C(NCCNCC(O)COc1ccc(O)cc1)N1CCOCC1` (stereo not shown) [Xamoterol hemifumarate], under 5%; under `Cc1cccc(C)c1NC1=NCCCS1` [Xylazine HCl], under 5%. As to `CCCOc1ccccc1-c1nc2[nH]nnc2c(=O)[nH]1` [Zaprinast], the inhibition at 50 µM at USP7 [1] was under 5%. For the molecule `COc1cc(-c2ccc(=O)[nH]n2)ccc1OC(F)F` [Zardaverine], the inhibition at 50 µM at USP7 [1] was under 5%. Still for that read-out and setting: the result for `O=P(O)(O)C(O)(Cn1ccnc1)P(=O)(O)O` [Zoledronic acid] reads under 5%.

For `NS(=O)(=O)Cc1noc2ccccc12` [Zonisamide], the inhibition at 50 µM at USP7 [1] was under 5%. On the same count and under the same terms, the result for `CC(C)[C@H]1CC[C@H](C(=O)N[C@H](Cc2ccccc2)C(=O)O)CC1` [nateglinide] reads under 5%; that for `CN(C)CCc1c[nH]c2ccc(C[C@H]3COC(=O)N3)cc12` [zolmitriptan], under 5%.

For the origin of these results see paper PMC5363571 (Oncotarget, 2016).
